Data as given in PMC5571359, “Screening the Medicines for Malaria Venture Pathogen Box across Multiple Pathogens Reclassifies Starting Points for Open-Source Drug Discovery” (Antimicrobial Agents and Chemotherapy, 2017).
Where two headings read alike, the source gives them in different places.

What was measured:
[1] = tested on: T. cruzi C4 β-galactosidase reporter parasite in MRC 5SV2 host cells; settings: ref Pbox supporting information; read-out: T. cruzi Pbox IC50; cited from earlier work
[2] = tested on: T. cruzi intracellular amastigotes; assay: Intracellular anti-Trypanosoma cruzi image-based assay (amastigotes); type: cell-based; settings: for IC50 / Emax: Trypanosoma cruzi; for IC50: intracellular amastigotes; for Emax: PBox kinetoplastid set compounds active against T. cruzi alone, read-out: Emax against T. cruzi (subefficacious effect)
HEK293 cells = assay: HEK293 resazurin cell cytotoxicity assay; settings: Homo sapiens
P. falciparum ABS = settings: cited from earlier work; for EC50: ChEMBL Data; for IC50: read-out: Pf 3D7 Pbox IC50
liver stage = settings: cited from earlier work
HepG2 = settings: cited from earlier work; for CC50: read-out: HepG2 PBox CC50 µM
[3] = tested on: L. donovani MHOM/IN/80/DD8 intracellular amastigotes; assay: Leishmania donovani intracellular amastigote assay in THP-1 cells; type: cell-based; settings: Leishmania donovani, THP-1; intracellular amastigotes; values marked *; read-out: L, donovani Discovery Biology IC50 µM
[4] = tested on: Plasmodium falciparum 3D7 asexual blood stage; assay: microbe, parasite or virus in culture
[5] = tested on: NF54-pfs16-LUC-GFP stage IV gametocytes; assay: Plasmodium falciparum late stage gametocyte (LSG) image-based assay; type: cell-based; settings: Plasmodium falciparum
[6] = tested on: T. b. brucei 427 bloodstream trypanosomes; assay: T. b. brucei resazurin viability assay; type: cell-based, Trypanosoma brucei brucei; settings: Trypanosoma brucei; read-out: T b.brucei Discovery Biology IC50
[7] = PBox compounds, 48 h exposure, read-out: IC50 T. cruzi (Discovery Biology)
[8] = HEK293, read-out: HEK % Inhibition 20uM/IC50 Discovery Biology
[9] = TCMDC, read-out: TCMDC (ref 93) EX50
[10] = Pf 3D7, ref Pathogen Box supporting information
[11] = liver stage, ref Pathogen Box supporting information, read-out: LIVER STAGE Pbox IC50
[12] = HepG2 CC50, ref Pathogen Box supporting information
[13] = ref Pbox supporting information
[14] = HEK293, read-out: HEK % Discovery Biology IC50 uM
[15] = P. falciparum 3D7, ref PBox supporting information
[16] = ref PBox supporting information
[17] = HepG2 cytotoxicity, ref PBox supporting information
[18] = read-out: T cruzi Discovery Biology IC50
[19] = 3D7, read-out: Antiplasmodial IC50 (ABS), PBox compounds, P. falciparum 3D7
[20] = 3D7, read-out: activity against P. falciparum (novel antiplasmodial actives of the tuberculosis set)
[21] = NF54, read-out: Antiplasmodial IC50 (GAM / LSG), PBox compounds, stage IV gametocytes, single determination
[22] = NF54, read-out: Pf Stage IV GAMS Discovery Biology IC50 µM, stage IV gametocytes, Discovery Biology

In the case of `CNc1cc(C)nc(C2CN(C(=O)c3n[nH]c4ccccc34)CCO2)c1` (stereo not drawn) [MMV689709], the IC50 [1] is given as 3890 nM, the IC50 [2, 7] is given as 3320 nM and the IC50 (HEK293 cells; [8]) is given as greater than 20 µM.
For `Cc1ccc(NC(=O)c2cc(S(=O)(=O)NC(C)(C)C)ccc2C)nc1` [MMV020289], the EC50 (P. falciparum ABS; [9]) is given as 760 nM, the IC50 (P. falciparum ABS; [10]) is given as 930 nM and the IC50 (liver stage; [11]) is given as 7350 nM. The CC50 (HepG2; [12]) was greater than 7.5 µM.
For `CNc1nnc(Sc2cnn(-c3ccccc3)c(=O)c2Cl)s1` [MMV688763], the IC50 [3] is given as 2.11 µM, the “HepG2 PBox CC20 μMc” value (HepG2; [13]) is given as 1600 nM and the IC50 ([4]; 3D7, read-out: Pf 3D7 Discovery Biology IC50 µM, P. falciparum 3D7 asexual blood stage) is given as 3.36 µM. The IC50 (HEK293 cells; [14]) was 6.32 µM and the IC50 ([5]; NF54, read-out: Pf Stage IV GAMS Discovery Biology IC50 µM, stage IV gametocytes) was 5.33 µM.
For `Cc1cc(C)n2nc(C(=O)Nc3cc(C(F)(F)F)ccc3N3CCOCC3)nc2n1` [MMV019087], the EC50 (P. falciparum ABS; [9]) is given as 120 nM, the IC50 (P. falciparum ABS; [10]) is given as 220 nM and the IC50 (liver stage; [11]) is given as 1210 nM. The CC50 (HepG2; [12]) was greater than 10 µM.
In the case of `Cc1cnc(CCNC(=O)c2cc(-c3ccc(Cl)cc3)cs2)[nH]1` [MMV676350], the EC50 (P. falciparum ABS; P. falciparum, read-out: TCMDC (ref 93) EX50) is given as 240 nM, the IC50 (P. falciparum ABS; [15]) is given as 810 nM and the IC50 (liver stage; [13]) is given as 8580 nM. For the same compound, the CC50 (HepG2; [16]) was greater than 10 µM.
In the case of `NS(=O)(=O)c1cncc(-c2ccc3nccc(-c4cn[nH]c4)c3n2)c1` [MMV024101], the EC50 (P. falciparum ABS; [9]) is given as 530 nM, the IC50 (P. falciparum ABS; [10]) is given as 600 nM and the IC50 (liver stage; [11]) is given as 2170 nM.
For `COc1ccc(CN2CCOc3ccc(C(C)(O)CN(C)C)cc3C2)cc1C` (stereo not drawn) [MMV008439], the EC50 (P. falciparum ABS; NITD, read-out: NITD (ref 94) EC50) is listed as 820 nM, the IC50 (P. falciparum ABS; [10]) is listed as greater than 2000 nM and the IC50 (liver stage; [11]) is listed as 930 nM. The CC50 (HepG2; [12]) was greater than 10 µM.
In the case of `O=C(Nc1nc(-c2ccccn2)cs1)c1cncn1-c1ccccc1` [MMV676512], the CC50 (HepG2; [17]) is given as 3.8 µM, the IC50 ([2]; Discovery Biology, read-out: T cruzi Discovery Biology IC50) is given as 4120 nM and the IC50 [6] is given as 2870 nM. The IC50 (HEK293 cells; [14]) was 2.83 µM.
For `O=C([C@@H](c1ccc(Cl)cc1)c1cccnc1)N1CCN(c2ccc(C(F)(F)F)cc2)CC1` [MMV689244], the IC50 [1] is given as 7.5 nM, the “HepG2 PBox CC20” value (HepG2; [16]) is given as 19000 nM and the Emax [2] is given as less than 100%. The IC50 [2, 18] was 120 nM and the IC50 (HEK293 cells; [8]) was greater than 20 µM.
In the case of `CN1CCN(c2nccc3nc(-c4ccc(F)c(F)c4)[nH]c23)CC1` [MMV676260], the IC50 (P. falciparum ABS; [15]) is listed as 1130 nM, the IC50 (liver stage; [13]) is listed as greater than 10000 nM and the CC50 (HepG2; [16]) is listed as greater than 10 µM.
In the case of `O=C1N(Cc2cc3ccccc3s2)CC2CN(Cc3ccccc3)CCN12` (stereo not drawn) [MMV084603], the EC50 (P. falciparum ABS; P. falciparum, read-out: NITD (ref 94) EC50) is listed as 440 nM, the IC50 (P. falciparum ABS; [15]) is listed as 1160 nM and the IC50 (liver stage; [13]) is listed as 200 nM. For the same compound, the CC50 (HepG2; [16]) was greater than 10 µM.
For `COc1cccc(-c2nc3c(N4CCCC4)cccc3n2CC2CCCN2)n1` (stereo not drawn) [MMV687703], the CC50 (HepG2; [17]) is listed as 25 µM, the IC50 [4, 19] is listed as 1.33 µM and the IC50 [4, 20] is listed as less than 2 µM. The inhibition at 20 µM (HEK293 cells; [8]) was 76% and the IC50 [5, 21] was 3.83 µM.
In the case of `Cc1cccc(-c2nc(Nc3ccncn3)c3sccc3n2)n1` [MMV688122], the CC50 (HepG2; [17]) is listed as 14.3 µM, the IC50 [4, 19] is listed as 2.11 µM and the IC50 [5, 21] is listed as 0.11 µM.
In the case of `CC(Oc1ccccc1)C(=O)Nc1nc(-c2ccccn2)cs1` (stereo not drawn) [MMV676411], the CC50 (HepG2; [17]) is given as 29.3 µM, the IC50 [6] is given as 3220 nM and the IC50 ([4]; 3D7, read-out: Pf 3D7 Discovery Biology IC50 µM, P. falciparum 3D7 asexual blood stage, Discovery Biology) is given as 5 µM. It also gave an inhibition at 20 µM (HEK293 cells; [8]) of 81% and an IC50 [5, 22] of 1.92 µM.
In the case of `CO/C=C(/C(=O)OC)c1ccccc1Oc1cc(Oc2ccccc2C#N)ncn1` [MMV021057], the IC50 (P. falciparum ABS; [10]) is listed as 53.6 nM, the IC50 ([4]; 3D7, read-out: Antiplasmodial IC50 (ABS)) is listed as 0.04 µM and the IC50 ([4]; 3D7, read-out: Pf 3D7 Discovery Biology IC50 µM) is listed as 0.035 µM. The inhibition at 20 µM (HEK293 cells; [8]) was 71% and the IC50 [5, 21] was 0.03 µM.
For `O=C1COCc2ccc(Br)cc2N1Cc1ccc(C(F)(F)F)cc1` [MMV032995], the IC50 (P. falciparum ABS; [15]) is given as 960 nM and the IC50 (liver stage; [13]) is given as 2000 nM.
For `CCC(Sc1nc2ccccc2o1)C(=O)Nc1nccs1` (stereo not drawn) [MMV676383], the CC50 (HepG2; [17]) is given as 13 µM, the IC50 [4, 19] is given as 4.43 µM and the IC50 [4, 20] is given as 4 to 5 µM. The inhibition at 20 µM (HEK293 cells; [8]) was 88% and the IC50 [5, 21] was 1.37 µM.
In the case of `FC(F)(F)c1ccc(N(c2cccnc2)C2CCN(c3ccc(C(F)(F)F)cn3)CC2)cc1` [MMV689243], the IC50 [1] is listed as 15 nM, the “HepG2 PBox CC20” value (HepG2; [16]) is listed as 25800 nM and the Emax [2] is listed as less than 100%. It also gave an IC50 [2, 18] of 700 nM and an IC50 (HEK293 cells; [8]) greater than 20 µM.
In the case of `COc1cccc(-n2nnnc2S(C)(=O)=O)c1` [MMV272144], the CC50 (HepG2; [17]) is given as 1.7 µM, the IC50 [6] is given as 4120 nM and the inhibition at 20 µM (HEK293 cells; [8]) is given as 100%. For the same compound, the IC50 [5, 22] was 1.92 µM.
With `CC(C)n1nc(-c2cc3c(Cl)cccc3[nH]2)c2c(N)ncnc21` [MMV688417] the “activity against T. cruzi in the Discovery Biology assay” value [2] was “subefficacious activity”, the IC50 [2, 7] was 1430 nM and the IC50 [6] was 6100 nM. For the same compound, the inhibition at 20 µM (HEK293 cells; [8]) was 83%.
